Drawing on ChEMBL document CHEMBL1145689, “Phospholipase A 2 Inhibitors from an Erythrina Species from Samoa” (J Nat Prod, 1997), this text covers IC50 for 3 compounds.

A word on the IC50: it is the concentration at which inhibition is half-maximal.

SMILES strings stand for the structures.

For the assay, the target named is Phospholipase A2 (Homo sapiens, UniProt P04054). Description: Inhibition of PLA2 in fMLP and A23187 ionophore-stimulated human HL60 cells assessed as effect on [3H]arachidonic acid release. The format is cell-based. Particulars: hl-60.
Phospholipase A2, sequence (P04054 whole entry): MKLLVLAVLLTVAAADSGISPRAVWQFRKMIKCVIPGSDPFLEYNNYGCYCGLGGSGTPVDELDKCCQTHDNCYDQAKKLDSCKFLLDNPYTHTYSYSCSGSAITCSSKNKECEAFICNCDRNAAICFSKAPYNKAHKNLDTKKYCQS
On to `CC(C)=CCc1cc(C2CC(=O)c3c(cc(O)c(CC=C(C)C)c3O)O2)cc(CC=C(C)C)c1O` (stereo not drawn), for which the IC50 came out at 10 µM.
With `CC(C)=CCc1cc([C@@H]2CC(=O)c3c(O)cc(O)cc3O2)cc(CC=C(C)C)c1O` [ABYSSINONE V] the figure was 6 µM; with `CC(C)=CCc1cc2c(cc1O)OCc1c-2oc2c(CC=C(C)C)c(O)ccc12` [ERYCRYSTAGALLIN], 3 µM.
